# Reference: patent US20070112076A1, “Methods and materials for treating retinopathy” (SOUTHERN ILLINOIS UNIVERSITY, priority 2005, published 2007)
# Legend:
# [1] = test system: PGE2-EP2 receptor subtype expression in human retinal endothelial cells; assay: Western blot of PGE2-EP2 receptor subtype expression in retinal endothelial cells; format: cell-based; settings: low or high glucose media, 10 μM, 1, 2 or 6 h
# Method: (§1) Denaturing sample buffer (1 ml 2×GDW, 640 μl 1 M Tris-HCl, pH 6.8, 420 μl 30% glycerol, 250 μl β-mercaptoethanol, 200 μL 0.05% bromophenol blue, and 0.125 g recrystallized SDS) was added to 50 μg of protein, as determined by Bradford assay. Protein samples with sample buffer were centrifuged for 5 min to thoroughly mix the samples, followed by heat denaturation for 5 min at 100° C. Protein samples were then separated on 4-12% pre-cast tris-glycine gels (Invitrogen, Carlsbad, Calif.). Electrophoresis and immunoblotting were done as previously described (Steinle et al., J. Biol. Chem. 278 (2003) (23), pp. 20681-20686) using antibodies to iNOS (diluted 1:500, Chemicon, Temecula, Calif.) and PGE2-EP2 receptor subtype (diluted 1:500, Chemicon). Mean densitometry of immunoreactive bands was assessed using Kodak software, and results are expressed in densitometric units. A paired T-test was performed between the sympathectomized and contralateral retina with significance accepted at P<0.05.
# Initial studies focused on human retinal endothelial cells, which express β-adrenergic receptors. […]
# For experiments, cells were starved for 18-24 h using starvation medium to insure that the results obtained are due to agonist stimulation, not residual effects from the serum. […] The effects of xamoterol and BRL37344 were evaluated under high glucose conditions only. […]
# [2] = test system: PKA activity in the retina; assay: PKA ELISA on retinal lysates after eye drops; format: in vivo, rat; settings: 4 drops of 100 μM eye drops
# Method: Three groups of animals were used for these experiments. The first group was made diabetic by a single injection of 60 mg/kg streptozotocin and allowed to remain diabetic for 2.5 month and received 4 drops of 100 μM isoproterenol placed into both eyes (STZ). The other two groups were control groups, with one group being non-diabetic but receiving the 100 μM isoproterenol eye drops (Normal), and the other group not receiving any treatment (NT). At 4, 8 and 12 hours after treatment with isoproterenol, retina from the rats was assayed for PKA by ELISA and CREB by Western blot analysis. The retina of rats from each group was assayed for PKA by ELISA. Three rats were evaluated at each time point (4 hours, 8 hours and 12 hours). The PKA ELISA was carried out using the […] Protein Kinase Assay System from Upstate (Lake Placid, N.Y.). To begin the experiments, 0.1M ATP was made and set to a pH of 7.0. cAMP at a concentration of 20 μM was made with reagents purchased from Sigma Aldrich. To obtain the samples to be assayed, animals were sacrificed and the retina was removed and placed in reaction buffer supplied in the kit. One hundred microliters of each sample in reaction buffer was placed into coated wells of a 96-well plate in duplicate. […] Following application of 100 μL of stop solution to end the reaction with the substrate, the plate was read at 490 nm on a BioTek Plate Reader.
# [3] = test system: PGE2 levels in human retinal endothelial cells; assay: PGE2 ELISA in retinal endothelial cells after agonist treatment; format: cell-based; settings: low or high glucose media, 10 μM, 1, 2 or 6 h
# Excerpt: An ELISA assay to measure PGE2 content in cell culture supernatants and retinal samples was purchased from Endogen (Pierce Biotechnology, Rockford, Ill.) and used according to the manufacturer's instructions. Initial studies focused on human retinal endothelial cells, which express β-adrenergic receptors. Human microvascular retinal endothelial cells were isolated by Applied Cell Biology Research Institute and sold by Cell Systems (Kirkland, Wash.). Cells were used at passage 3-5 for all experiments. Cells were identified as endothelial cells on the basis of their cobblestone morphology. Cells were grown in attachment factor-coated Corning® dishes and in either high or low glucose media. Both high and low glucose media were identical (purchased from Cell Systems and supplemented with 20% fetal bovine serum, 100 IU/ml penicillin, 100 μg/ml streptomycin, and 0.25 μg/ml amphotericin B) except for the glucose concentration: 25 mM glucose (high glc) or 5 mM glucose (low glc). Cells were adjusted to the appropriate glucose environment for 5 days before the experiments were conducted in starvation medium. Starvation medium had the appropriate concentration of glucose and contains all of the above ingredients except that 0.2% bovine serum albumin is substituted for 20% serum. […] The effects of xamoterol and BRL37344 were evaluated under high glucose conditions only.
# [4] = test system: CREB protein expression in the retina; assay: Western blot of CREB protein expression in retina after eye drops; format: in vivo, rat; settings: 100 μM eye drops, diabetic animals, 8 hours, compared to the normal group
# Method: Three groups of animals were used for these experiments. The first group was made diabetic by a single injection of 60 mg/kg streptozotocin and allowed to remain diabetic for 2.5 month and received 4 drops of 100 μM isoproterenol placed into both eyes (STZ). The other two groups were control groups, with one group being non-diabetic but receiving the 100 μM isoproterenol eye drops (Normal), and the other group not receiving any treatment (NT). At 4, 8 and 12 hours after treatment with isoproterenol, retina from the rats was assayed for PKA by ELISA and CREB by Western blot analysis.
# Western blot analysis was also done to determine protein expression of CREB. Two rats were evaluated at each time point (4 hours, 8 hours and 12 hours). Animals were sacrificed and the eyes were removed. The retina was extracted and placed into lysis buffer (50 mM Tris-HCL, pH 7.4; 1% NP-40, 0.25% Na-deoxycholate; 150 mM NaCl; 1 mM EDTA; 1 mM PMSF; 1 μg/ml each of aprotinin, leupeptin, pepstatin; 1 mM Na3VO4; 1 mM NaF; 0.1% SDS). Protein lysates were homogenized and centrifuged to generate a pellet and supernatant. […] Immunoreactive bands were detected by enhanced SuperSignal (Pierce, Rockford, Ill.) and analyzed using the Kodak 2000R image station. Mean densitometry was assessed using Kodak software, and results are expressed as a percentage of the not treated eyes. […]
# [5] = test system: iNOS protein expression in human retinal endothelial cells; assay: Western blot of iNOS protein expression after agonist treatment of retinal endothelial cells; format: cell-based
# Method: as §1
# Initial studies focused on human retinal endothelial cells, which express β-adrenergic receptors. Human microvascular retinal endothelial cells were isolated by Applied Cell Biology Research Institute and sold by Cell Systems (Kirkland, Wash.). Cells were used at passage 3-5 for all experiments. Cells were identified as endothelial cells on the basis of their cobblestone morphology. Cells were grown in attachment factor-coated Corning® dishes and in either high or low glucose media. Both high and low glucose media were identical (purchased from Cell Systems and supplemented with 20% fetal bovine serum, 100 IU/ml penicillin, 100 μg/ml streptomycin, and 0.25 μg/ml amphotericin B) except for the glucose concentration: 25 mM glucose (high glc) or 5 mM glucose (low glc). Cells were adjusted to the appropriate glucose environment for 5 days before the experiments were conducted in starvation medium. Starvation medium had the appropriate concentration of glucose and contains all of the above ingredients except that 0.2% bovine serum albumin is substituted for 20% serum.
# For experiments, cells were starved for 18-24 h using starvation medium to insure that the results obtained are due to agonist stimulation, not residual effects from the serum. Following starvation, 10 μM isoproterenol (non-specific β-adrenergic receptor agonist), 10 μM xamoterol (β1-adrenergic receptor subtype agonist), or 10 μM BRL37344 (β3-adrenergic receptor subtype agonist) was placed onto dishes and allowed to act on the cells for 1, 2, or 6 h. Three dishes received no treatment and serve as not-treated controls. […] The effects of xamoterol and BRL37344 were evaluated under high glucose conditions only. […]
# retina = settings: osmotic pump in the rat; cited from earlier work
# [6] = high glucose medium, 10 μM, 1, 2 or 6 h, vs. NT
smiles,measurement,setting,value
CC(C)NCC(O)c1ccc(O)c(O)c1 (centres unmarked) [isoproterenol],PGE2-EP2 receptor subtype expression,[1],did not affect
same,PKA activity in retina,[2]; 12 hours after treatment,"significantly increased at 12 hours after treatment relative to the normal, but not when compared to the not treated group"
same,PKA activity in retina,"[2]; STZ diabetic rats, 8-hour time point, P<0.05 vs. not-treated and vs. normal",significantly increased
same,PGE2 protein levels,[3],did not affect
same,CREB protein expression in retina,[4],substantial increase
same,iNOS protein expression,"[5]; high glucose (25 mM) medium, 10 μM, 6 h, P<0.05 vs. not treated",significantly reduced
same,iNOS protein expression,"[5]; low glucose (5 mM) medium, 10 μM, 6 h, P<0.05 vs. not treated",upregulation
O=C(NCCNCC(O)COc1ccc(O)cc1)N1CCOCC1 (centres unmarked) [xamoterol],iNOS protein expression,[5]; [6],decreased iNOS protein expression
CC(C)NCC(O)COc1cccc2ccccc12 (centres unmarked) [propranolol],retinal changes as observed after sympathectomy,retina,can be mimicked
Cc1ccc(N(CC2=NCCN2)c2cccc(O)c2)cc1 [phentolamine],retinal changes as observed after sympathectomy,retina,no effect
C[C@H](Cc1ccc(OCC(=O)O)cc1)NC[C@H](O)c1cccc(Cl)c1 [BRL37344],iNOS protein expression,[5]; [6],no effect
